For 25 compounds, Emax and EC50 results are on record in patent publication US20110130365A1, “Fluorinated Heteroaryls” (priority 2008, published 2011).

pEC50: −log10 of the molar value.

This experiment addresses T1, Full-length glucokinase (beta cell isoform) (Homo sapiens, UniProt P35557).
T1 construct: Full-length glucokinase (beta cell isoform) was His-tagged at N-terminus; His tag (N); made in house
T1 sequence (P35557 1-465): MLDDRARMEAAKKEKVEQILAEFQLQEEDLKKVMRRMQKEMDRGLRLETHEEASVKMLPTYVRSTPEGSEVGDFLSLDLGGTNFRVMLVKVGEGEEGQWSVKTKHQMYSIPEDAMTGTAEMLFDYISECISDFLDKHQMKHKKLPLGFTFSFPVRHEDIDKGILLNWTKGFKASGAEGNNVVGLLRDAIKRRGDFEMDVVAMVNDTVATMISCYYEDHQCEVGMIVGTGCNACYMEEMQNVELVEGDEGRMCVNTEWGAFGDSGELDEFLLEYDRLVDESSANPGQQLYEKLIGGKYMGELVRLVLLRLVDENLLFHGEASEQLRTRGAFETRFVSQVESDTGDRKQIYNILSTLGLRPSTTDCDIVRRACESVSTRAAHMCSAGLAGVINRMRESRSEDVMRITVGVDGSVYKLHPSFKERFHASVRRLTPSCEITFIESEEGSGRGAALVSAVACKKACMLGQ
The experiment in a line: Glucokinase activation assay (PK/LDH-coupled, NADH depletion at 340 nm). In kind it is biochemical. The settings on record: 5 mM glucose, 2.5 mM ATP, pH 7.1, room temperature, values given as a range where N>1; for Emax: fitted % max activation, read-out: Maximum Activation. The procedure:
Full-length glucokinase (beta cell isoform) was His-tagged at N-terminus and purified by a Ni column followed by size exclusion chromatography. A 320 mL column was packed in house using Pharmacia Superdex75 preparation grade resin. Glucose was obtained from Calbiochem (San Diego, Calif.) and other reagents were purchased from Sigma (St. Louis, Mo.).
All assays were performed in a Corning 384-well plate using Spectramax PLUS spectrophotometer (Molecular Devices, Sunnyvale, Calif.) at room temperature. The final assay volume was 40 μL. The buffer conditions used in this assay were as follows: 50 mM HEPES, 5 mM glucose, 2.5 mM ATP, 3.5 mM MgCl2, 0.7 mM NADH, 2 mM dithiothreitol, 1 Unit/mL PK/LDH, 0.2 mM phosphoenolpyruvate, and 25 mM KCl. The buffer pH was 7.1. The test compound in DMSO solution was added to the buffer and mixed by a plate shaker for 7.5 minutes. The final concentration of DMSO introduced into the assay was 0.25%.
Glucokinase was added to the buffer mixture to initiate the reaction in the presence and absence of compound. The reaction was monitored by absorbance at 340 nm due to the depletion of NADH. The initial reaction velocity was measured by the slope of a linear time course of 0-300 seconds. The percentage of activation was calculated by the following equation:
% Activation=(Va/Vo−1)×100;
wherein each of Va and Vo is defined as the initial reaction velocity in the presence and absence of the tested compound, respectively.
To determine the EC50 (half maximal effective concentration) and % maximum activation, compounds were serially diluted in DMSO by 3-fold. The GK activities were measured as a function of compound concentrations. The data were fitted to the equation below to obtain the EC50 and % max activation values:
Va/Vo=1+(% max activation/100)/(1+EC50/compound concentration)

For the compound `Cc1cnc(NC(=O)[C@H](CC2CCCC2)n2ccc(C(F)(F)F)cc2=O)cn1` [Example 1, (S)-3-cyclopentyl-N-(5-methylpyrazin-2-yl)-2-(2-oxo-4-(trifluoromethyl)pyridin-1(2H)-yl)propanamide], the Emax lay within 76 to 100% and the pEC50 is 4.98 to 5.30.
The matching figures for `Cc1ccc(NC(=O)[C@H](CC2CCCC2)n2cccc(C(F)(F)F)c2=O)nc1` [Example 2, (S)-3-cyclopentyl-N-(5-methylpyridin-2-yl)-2-(2-oxo-3-(trifluoromethyl)pyridin-1(2H)-yl)propanamide]: 0% and less than 4.00.
Regarding `Cc1ccc(NC(=O)[C@H](CC2CCCC2)n2ccc(C(F)(F)F)cc2=O)nc1` [Example 3, (S)-3-cyclopentyl-N-(5-methylpyridin-2-yl)-2-(2-oxo-4-(trifluoromethyl)pyridin-1(2H)-yl)propanamide], the Emax lay in the range of 55 to 79% and the pEC50 is 5.60 to 6.00.
`Cn1ccc(NC(=O)[C@H](CC2CCCC2)n2ccc(C(F)(F)F)cc2=O)n1` [Example 4, (S)-3-cyclopentyl-N-(1-methyl-1H-pyrazol-3-yl)-2-(2-oxo-4-(trifluoromethyl)pyridin-1(2H)-yl)propanamide]: the Emax fell in the range of 72 to 106% and the pEC50 was 4.65 to 5.34.
`Cc1cnc(NC(=O)[C@H](CC2CCCC2)n2cccc(C(F)(F)F)c2=O)cn1` [Example 5, (S)-3-cyclopentyl-N-(5-methylpyrazin-2-yl)-2-(2-oxo-3-(trifluoromethyl)pyridin-1(2H)-yl)propanamide]: the Emax turned out to be 0% and the pEC50 is less than 4.00.
For the compound `Cc1ccc(NC(=O)[C@H](CC2CCCC2)n2cc(C(F)(F)F)ccc2=O)nc1` [Example 6, (S)-3-cyclopentyl-N-(5-methylpyridin-2-yl)-2-(2-oxo-5-(trifluoromethyl)pyridin-1(2H)-yl)propanamide], the Emax fell in the range of 88 to 105% and the pEC50 was 6.10 to 6.70.
As for `Cc1cnc(NC(=O)[C@H](CC2CCCC2)n2cc(C(F)(F)F)ccc2=O)cn1` [Example 7, (S)-3-cyclopentyl-N-(5-methylpyrazin-2-yl)-2-(2-oxo-5-(trifluoromethyl)pyridin-1(2H)-yl)propanamide], the Emax was in the range of 118 to 152% and the negative-log EC50 (pEC50) was 5.43 to 5.80.
In the case of `O=C(Nc1cnccn1)[C@H](CC1CCCC1)n1cc(C(F)(F)F)ccc1=O` [Example 8, (S)-3-cyclopentyl-2-(2-oxo-5-(trifluoromethyl)pyridin-1(2H)-yl)-N-(pyrazin-2-yl)propanamide], the Emax is 110 to 128% and the pEC50 was 5.49 to 5.77.
The matching figures for `O=C(Nc1ccncn1)[C@H](CC1CCCC1)n1cc(C(F)(F)F)ccc1=O` [Example 9, (S)-3-cyclopentyl-2-(2-oxo-5-(trifluoromethyl)pyridin-1(2H)-yl)-N-(pyrimidin-4-yl)propanamide]: 95 to 106% and 5.85 to 5.96.
`CCn1ccc(NC(=O)[C@H](CC2CCCC2)n2cc(C(F)(F)F)ccc2=O)n1` [Example 10, (S)-3-cyclopentyl-N-(1-ethyl-1H-pyrazol-3-yl)-2-(2-oxo-5-(trifluoromethyl)pyridin-1(2H)-yl)propanamide]: the Emax lay within 121 to 148% and the pEC50 is 5.68 to 5.82.
Turning to `O=C(Nc1ccn(Cc2ccccc2)n1)[C@H](CC1CCCC1)n1cc(C(F)(F)F)ccc1=O` [Example 11, (S)—N-(1-benzyl-1H-pyrazol-3-yl)-3-cyclopentyl-2-(2-oxo-5-(trifluoromethyl)pyridin-1(2H)-yl)propanamide], the Emax lay in the range of 108 to 141% and the pEC50 is 5.89 to 6.15.
As to `O=C(Nc1ncccn1)[C@H](CC1CCCC1)n1cc(C(F)(F)F)ccc1=O` [Example 12, (S)-3-cyclopentyl-2-(2-oxo-5-(trifluoromethyl)pyridin-1(2H)-yl)-N-(pyrimidin-2-yl)propanamide], the Emax lay within 109 to 110% and the pEC50 was 4.68 to 4.87.
Consider `O=C(Nc1cnccn1)[C@H](CC1CCCC1)n1ccc(C(F)(F)F)cc1=O` [Example 13, (S)-3-cyclopentyl-2-(2-oxo-4-(trifluoromethyl)pyridin-1(2H)-yl)-N-(pyrazin-2-yl)propanamide], for which the Emax stood at 106% and the pEC50 was 4.85.
Regarding `O=C(Nc1ccncn1)[C@H](CC1CCCC1)n1ccc(C(F)(F)F)cc1=O` [Example 14, (S)-3-cyclopentyl-2-(2-oxo-4-(trifluoromethyl)pyridin-1(2H)-yl)-N-(pyrimidin-4-yl)propanamide], the Emax was found to be 58% and the pEC50 was 5.24.
For `CCn1ccc(NC(=O)[C@H](CC2CCCC2)n2ccc(C(F)(F)F)cc2=O)n1` [Example 15, (S)-3-cyclopentyl-N-(1-ethyl-1H-pyrazol-3-yl)-2-(2-oxo-4-(trifluoromethyl)pyridin-1(2H)-yl)propanamide], the Emax stood at 92% and the pEC50 is 5.03.
On to `Cn1ccc(NC(=O)[C@H](CC2CCCC2)n2cc(C(F)(F)F)ccc2=O)n1` [Example 16, (S)-3-cyclopentyl-N-(1-methyl-1H-pyrazol-3-yl)-2-(2-oxo-5-(trifluoromethyl)pyridin-1(2H)-yl)propanamide], for which the Emax came to 125% and the pEC50 is 5.60.
As for `O=C(Nc1ccc(C(F)(F)F)cn1)[C@H](CC1CCCC1)n1cc(C(F)(F)F)ccc1=O` [Example 17, (S)-3-cyclopentyl-2-(2-oxo-5-(trifluoromethyl)pyridin-1(2H)-yl)-N-(5-(trifluoromethyl)pyridin-2-yl)propanamide], the Emax amounted to 57% and the negative logarithm of the EC50 (pEC50) is 6.40.
For the compound `O=C(Nc1ccon1)[C@H](CC1CCCC1)n1cc(C(F)(F)F)ccc1=O` [Example 18, (S)-3-cyclopentyl-N-(isoxazol-3-yl)-2-(2-oxo-5-(trifluoromethyl)pyridin-1(2H)-yl)propanamide], the Emax stood at 103% and the pEC50 is 5.03.
As for `O=C(Nc1ccc2ccccc2n1)[C@H](CC1CCCC1)n1cc(C(F)(F)F)ccc1=O` [Example 19, (S)-3-cyclopentyl-2-(2-oxo-5-(trifluoromethyl)pyridin-1(2H)-yl)-N-(quinolin-2-yl)propanamide], the Emax was 89% and the negative-log EC50 (pEC50) was 6.30.
For the compound `COc1cnc(NC(=O)[C@H](CC2CCCC2)n2cc(C(F)(F)F)ccc2=O)cn1` [Example 20, (S)-3-cyclopentyl-N-(5-methoxypyrazin-2-yl)-2-(2-oxo-5-(trifluoromethyl)pyridin-1(2H)-yl)propanamide], the Emax came out at 114% and the pEC50 was 5.92.
For the compound `O=C(Nc1ccccn1)[C@H](CC1CCCC1)n1cc(C(F)(F)F)ccc1=O` [Example 21, (S)-3-cyclopentyl-2-(2-oxo-5-(trifluoromethyl)pyridin-1(2H)-yl)-N-(pyridin-2-yl)propanamide], the Emax is 113% and the pEC50 is 6.52.
Regarding `Cc1cnc(NC(=O)[C@H](CC2CCCC2)n2cnc(C(F)(F)F)cc2=O)cn1` [Example 22, (S)-3-cyclopentyl-N-(5-methylpyrazin-2-yl)-2-(6-oxo-4-(trifluoromethyl)pyrimidin-1(6H)-yl)propanamide], the Emax is 130% and the pEC50 was 4.69.
For `Cc1ccc(NC(=O)[C@H](CC2CCCC2)n2cnc(C(F)(F)F)cc2=O)nc1` [Example 23, (S)-3-cyclopentyl-N-(5-methylpyridin-2-yl)-2-(6-oxo-4-(trifluoromethyl)pyrimidin-1(6H)-yl)propanamide], the Emax worked out at 77% and the negative logarithm of the EC50 (pEC50) was 5.59.
Turning to `Cn1ccc(NC(=O)[C@H](CC2CCCC2)n2cnc(C(F)(F)F)cc2=O)n1` [Example 24, (S)-3-cyclopentyl-N-(1-methyl-1H-pyrazol-3-yl)-2-(6-oxo-4-(trifluoromethyl)pyrimidin-1(6H)-yl)propanamide], the Emax was 106% and the pEC50 is 4.57.
In the case of `CCOC(=O)Cc1cnc(NC(=O)[C@H](CC2CCCC2)n2cc(C(F)(F)F)ccc2=O)s1` [Example 25, (S)-ethyl 2-(2-(3-cyclopentyl-2-(2-oxo-5-(trifluoromethyl)pyridin-1(2H)-yl)propanamido)thiazol-5-yl)acetate], the Emax stood at 84% and the pEC50 is 5.54.

By pEC50 is commonly meant −log10 of the EC50, conventionally taken in molar units. A lower pEC50 goes with a large EC50.
